In brackets after ≈: the same amount, converted by molar mass. Several values for one entry are separate records, joined by “and”; a condition that tells them apart may be missing. Equal values may be shown once. Read-outs that look alike come from different tables or passages of the source.
Columns and labels:
[1] = test system: 3 sensitive and 7 MDR A. baumannii clinical isolates; experiment: MIC, Hungarian clinical isolates and controls (384-well); assay type: cell-based
A. baumannii ATCC 17978 = experiment: IHMA QC MIC; assay type: cell-based
Protocol: (§1) The panel of Hungarian clinical isolates and controls measured following the same method as detailed above, and albeit measurements were carried out in 384-well microtiter plates (Corning Inc.).

E. coli ATCC 35218 = experiment: IHMA QC MIC; assay type: cell-based
Protocol: as §1

E. coli ATCC 25922 = experiment: IHMA QC MIC; assay type: cell-based
physchem = assay type: physicochemical
Protocol: For the PBS, 2.38 g of disodium hydrogen phosphate dodecahydrate, 0.19 g of potassium dihydrogen phosphate, and 8.0 g of sodium chloride were added to distilled water (900 mL), and the solution was mixed overnight. […] Samples were prepared by weighing the exact mass of solid compounds (about 1 mg), and then, the appropriate volume of PBS was added to reach the final concentration of ∼1 mg/mL. […] The supernatant was diluted 3× with a 1:1 mixture of 0.1% TFA in water and acetonitrile and analyzed by HPLC. For the 7-point calibration curves, concentrated stock solutions of the compounds were prepared at concentrations of 10 and 0.5 mM in DMSO, which were diluted with a 1:1 mixture of 0.1% TFA in water and acetonitrile to the desired final concentrations and analyzed by HPLC. Results are given in μM as an average value of two independent experiments. For details on calibration curves, concentrations, analytical method, and HPLC method, see the Supporting Information.
Thermodynamic solubility assay
To determine thermodynamic solubility of compounds in PBS, calibration curves for the assayed compounds were prepared using seven concentrations. First, DMSO stock solutions of compounds at 10 mM and 0.5 mM concentration were prepared and then diluted (0.1% TFA in […]
Quality control (QC) samples were diluted from stock solutions with a 1:1 mixture of 0.1% TFA in water and acetonitrile to final concentrations of 60 µM, 20 µM, and 2 µM (6 µM, 2 µM, and 0.2 µM for 7f or 0.6 µM, 0.2 µM, and 0.02 µM for 7g).
Analytical reversed-phase UHPLC analyses were performed on Thermo Scientific Dionex UltiMate 3000 modular system (Thermo Fisher Scientific Inc., MA, USA). Waters Acquity UPLC® HSS C18 SB column (2.1 × 50 mm, 1.8 μm; Waters, Milford, MA, USA) was used at T […]
Mobile phase consisted of 0.1% trifluoroacetic acid in ultrapure water (solvent A) and acetonitrile […]
The obtained data was processed in Chromeleon CDS software (Thermo Fisher Scientific Inc., […]
Analytical method was tested for accuracy, precision and linear rang. Accuracy was […]
(or 2 or 0.2) µM and 60 (or 6 or 0.6) µM) to their true values and expressed in (%). Values were […]
Method repeatability was determined by calculating the RSD from the separately prepared and analysed quality control samples (n = 3). […] Linearity of the […]
method (1 (or 0.1 or 0.01) µM to 100 (or 10 or 1) µM) was evaluated from the 7-point calibration […]
Solubility was determined in two independent experiments and results were calculated in […]

in vitro = in vitro ADME, mouse; conditions: male; for recovery at 4 h, 5 μM: plasma protein binding assay
Protocol: The PPB studies were performed by Selvita d.o.o. (Zagreb, Croatia) in mouse plasma (CD-1 male, pooled, commercially obtained from BioIVT) via equilibrium dialysis. Compounds were assayed at 5 μM (0.5% DMSO) in two replicates, and incubation time was 4 h at 37 °C. Samples were taken at 0 min and 4 h. Aliquots from both buffer and plasma compartment matrix were matched and mixed with 6 volumes of STOP solution (acetonitrile/methanol (2:1) + internal standard – diclofenac) and analyzed by LC–MS/MS. Assay controls were caffeine (low), verapamil (moderate binding), and nicardipine (very high binding), and protein contamination was checked.

[2] = Acinetobacter baumannii, ATCC17978, read-out: MIC (QC, repeated tests)
[3] = Escherichia coli, ATCC35218, read-out: MIC (QC, repeated tests)
[4] = Escherichia coli, ATCC25922, read-out: MIC (QC, repeated tests)
[5] = QC strain E. coli ATCC 25922, test date 2021-11-26
[6] = pH 7.4, thermodynamic solubility (pH = 7.4)
[7] = Acinetobacter baumannii, ATCC17978; read-out: MIC (QC, repeated tests)
[8] = Escherichia coli, ATCC35218; read-out: MIC (QC, repeated tests)
[9] = Escherichia coli, ATCC25922; read-out: MIC (QC, repeated tests)

| SMILES | Cumulative % at MIC [1] | MIC (A. baumannii ATCC 17978; [2]) [µg/mL] | MIC (E. coli ATCC 35218; [3]) [µg/mL] | MIC (E. coli ATCC 25922; Escherichia coli, ATCC25922) [µg/mL] | MIC (E. coli ATCC 25922; [4]) [µg/mL] | MIC (E. coli ATCC 25922; [5]) [µg/mL] | recovery at 4 h, 5 μM (in vitro; CD-1, mouse) [%] | Cumulative % at MIC ([1]; n=10, MIC 0.5 µg/mL) [%] | Cumulative % at MIC ([1]; n=10, MIC 64 µg/mL) [%] | MIC (A. baumannii ATCC 17978; [7]) [µg/mL] | MIC (E. coli ATCC 35218; [8]) [µg/mL] | MIC (E. coli ATCC 25922; [9]) [µg/mL] | Cumulative % at MIC ([1]; n=10, MIC 0.0625 µg/mL) [%] | further results |
| --- | --- | --- | --- | --- | --- | --- | --- | --- | --- | --- | --- | --- | --- | --- |
| Cc1[nH]c(C(=O)Nc2nc3c(N4CCOCC4)cc(C(=O)O)cc3s2)c(Cl)c1Cl [7a, 2-(3,4-Dichloro-5-methyl-1H-pyrrole-2-carboxamido)-4-morpholinobenzo[d]thiazole-6-carboxylic Acid] | 80% and 100% | 8 (≈ 17.6 µM) | 4 (≈ 8.78 µM) | 8 (≈ 17.6 µM) | 8 (≈ 17.6 µM) | 8 (≈ 17.6 µM) | 81.5 | – | – | – | – | – | – | solubility thermodynamic (physchem; pH 7.4, PBS pH 7.4, read-out: thermodynamic solubility, Experiment 1): 100 µM (≈ 45.5 µg/mL); solubility thermodynamic (physchem; pH 7.4, PBS pH 7.4, read-out: thermodynamic solubility, Experiment 2): 96.6 µM (≈ 44 µg/mL); solubility thermodynamic (physchem; [6]): 98.3 µM (≈ 44.8 µg/mL); solubility thermodynamic at 48 h (physchem; [6]): 98 µM (≈ 44.6 µg/mL); fraction unbound at 4 h, 5 μM (in vitro; CD-1, mouse plasma, 5 µM, 4 h, read-out: fu, fraction unbound): 0.018 |
| Cc1[nH]c(C(=O)Nc2nc3c(N4[C@@H]5CC[C@H]4COC5)cc(C(=O)O)cc3s2)c(Cl)c1Cl [7h, 4-((1R,5S)-3-Oxa-8-azabicyclo[3.2.1]octan-8-yl)-2-(3,4-dichloro-5-methyl-1H-pyrrole-2-carboxamido)benzo[d]thiazole-6-carboxylic Acid] | 100% | – | 2 (≈ 4.15 µM) | – | – | 4 (≈ 8.31 µM) | 89 | – | – | – | – | – | – | MIC (QC, repeated tests) (A. baumannii ATCC 17978): 1 µg/mL (≈ 2.08 µM); solubility thermodynamic at 24 h (physchem; [6]): 3.8 µM (≈ 1.83 µg/mL); solubility thermodynamic at 24 h (physchem; pH 7.4, thermodynamic solubility, Experiment 1): 3.83 µM (≈ 1.84 µg/mL); solubility thermodynamic at 24 h (physchem; pH 7.4, thermodynamic solubility, Experiment 2): 3.8 µM (≈ 1.83 µg/mL); fraction unbound at 4 h, 5 μM (in vitro; CD-1, mouse, plasma, fu, fraction unbound): 0.009 |
| C[C@@H](O)[C@H]1C(=O)N2C(C(=O)O)=C(SCCNC=N)C[C@H]12 [Imipenem, imipenem] | – | – | – | – | – | – | – | 20 | 60 | ≤ 0.25 | ≤ 0.25 | ≤ 0.25 | – | Cumulative % at MIC ([1]; n=10, MIC 1 µg/mL): 30%; Cumulative % at MIC ([1]; n=10, MIC 128 µg/mL): 80%; Cumulative % at MIC ([1]; n=10, MIC 256 µg/mL): 100%; MIC (E. coli ATCC 25922; Escherichia coli, ATCC25922, QC strain E. coli ATCC 25922, test date 2021-11-26; read-out: MIC): 0.12 µg/mL (≈ 0.401 µM) |
| C[C@H]1COc2c(N3CCN(C)CC3)c(F)cc3c(=O)c(C(=O)O)cn1c23.C[C@H]1COc2c(N3CCN(C)CC3)c(F)cc3c(=O)c(C(=O)O)cn1c23.O [Levofloxacin, levofloxacin] | – | ≤ 0.25 | ≤ 0.25 | 0.015 | ≤ 0.25 | 0.015 | – | – | – | – | – | – | 30 | – |
| COc1c(N2C[C@@H]3CCCN[C@@H]3C2)c(F)cc2c(=O)c(C(=O)O)cn(C3CC3)c12 [Moxifloxacin, moxifloxacin] | – | – | – | – | – | – | – | 30 | 100 | ≤ 0.5 | ≤ 0.5 | ≤ 0.5 | 20 | Cumulative % at MIC ([1]; n=10, MIC 32 µg/mL): 70% |
